Data: ChEMBL document CHEMBL1201862, “PubChem BioAssay data set” (2004)
Active and inactive are the calls of the source.

Assays:
Cytochrome P450 2D6 = Cytochrome P450 2D6 (Homo sapiens, UniProt P10635);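 note: CYP2D6 member of a cytochrome P450 panel assay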
Cytochrome P450 3A4 = Cytochrome P450 3A4 (Homo sapiens, UniProt P08684);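 note: CYP3A4 tested as one member of a cytochrome P450 panel screen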
Cytochrome P450 1A2 = target: T1, Cytochrome P450 1A2 (Homo sapiens, UniProt P05177);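 note: PubChem cytochrome P450 panel assay, CYP1A2 panel member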
T1 sequence (P05177 whole entry): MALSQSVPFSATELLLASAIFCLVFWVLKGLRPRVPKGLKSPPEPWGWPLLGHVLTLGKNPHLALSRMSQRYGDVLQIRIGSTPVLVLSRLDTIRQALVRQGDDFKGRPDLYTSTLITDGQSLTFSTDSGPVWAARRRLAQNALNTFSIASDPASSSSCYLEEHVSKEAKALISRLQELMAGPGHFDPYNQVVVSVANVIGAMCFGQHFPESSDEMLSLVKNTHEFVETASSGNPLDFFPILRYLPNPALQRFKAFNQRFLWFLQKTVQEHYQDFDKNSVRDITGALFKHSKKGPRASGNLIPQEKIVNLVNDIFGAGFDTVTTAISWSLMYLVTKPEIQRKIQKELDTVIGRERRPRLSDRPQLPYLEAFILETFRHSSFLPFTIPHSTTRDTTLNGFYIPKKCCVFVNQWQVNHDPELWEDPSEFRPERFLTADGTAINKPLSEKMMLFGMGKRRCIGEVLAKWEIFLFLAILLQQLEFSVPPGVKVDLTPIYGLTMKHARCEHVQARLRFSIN

[1] = target: T2, Replicative DNA helicase DnaB (Mycobacterium tuberculosis, UniProt P9WMR3); assay: DnaB intein splicing inhibitors, dose response, biochemical, cell-free fluorescence (AID 449749); format: functional
T2 sequence (P9WMR3 whole entry): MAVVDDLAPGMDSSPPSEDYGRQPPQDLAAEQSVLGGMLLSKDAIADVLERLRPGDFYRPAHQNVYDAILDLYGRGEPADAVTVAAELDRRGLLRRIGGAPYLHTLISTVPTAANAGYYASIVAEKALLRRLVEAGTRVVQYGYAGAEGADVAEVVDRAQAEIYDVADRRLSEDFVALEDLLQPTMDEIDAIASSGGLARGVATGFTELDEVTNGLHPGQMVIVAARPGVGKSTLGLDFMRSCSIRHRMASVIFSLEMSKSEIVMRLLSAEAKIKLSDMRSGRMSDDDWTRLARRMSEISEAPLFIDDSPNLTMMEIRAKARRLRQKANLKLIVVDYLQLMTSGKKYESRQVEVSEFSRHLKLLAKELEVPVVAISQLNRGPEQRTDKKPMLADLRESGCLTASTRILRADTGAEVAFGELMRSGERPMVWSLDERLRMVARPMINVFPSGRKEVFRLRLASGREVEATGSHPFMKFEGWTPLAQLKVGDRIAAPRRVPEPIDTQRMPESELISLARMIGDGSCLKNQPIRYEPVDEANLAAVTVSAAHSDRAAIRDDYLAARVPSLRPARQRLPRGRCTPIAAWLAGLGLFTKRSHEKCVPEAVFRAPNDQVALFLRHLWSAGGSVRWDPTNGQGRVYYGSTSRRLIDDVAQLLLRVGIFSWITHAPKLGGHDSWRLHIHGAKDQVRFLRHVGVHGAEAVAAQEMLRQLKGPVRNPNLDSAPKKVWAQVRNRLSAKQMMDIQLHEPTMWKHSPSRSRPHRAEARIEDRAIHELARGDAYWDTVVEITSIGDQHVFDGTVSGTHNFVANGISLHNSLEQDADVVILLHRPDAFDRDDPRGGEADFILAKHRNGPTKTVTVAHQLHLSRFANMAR

Protein RecA = target: T3, Protein RecA (Mycobacterium tuberculosis, UniProt P9WHJ3); assay: Fluorescence Cell-Free Homogeneous Dose Retest to Identify Inhibitors of RecA-Intein Splicing Activity. [Related pubchem assays (depositor defined):AID2097, AID2223, AID489010, AID492950]; format: functional
T3 sequence (P9WHJ3 whole entry): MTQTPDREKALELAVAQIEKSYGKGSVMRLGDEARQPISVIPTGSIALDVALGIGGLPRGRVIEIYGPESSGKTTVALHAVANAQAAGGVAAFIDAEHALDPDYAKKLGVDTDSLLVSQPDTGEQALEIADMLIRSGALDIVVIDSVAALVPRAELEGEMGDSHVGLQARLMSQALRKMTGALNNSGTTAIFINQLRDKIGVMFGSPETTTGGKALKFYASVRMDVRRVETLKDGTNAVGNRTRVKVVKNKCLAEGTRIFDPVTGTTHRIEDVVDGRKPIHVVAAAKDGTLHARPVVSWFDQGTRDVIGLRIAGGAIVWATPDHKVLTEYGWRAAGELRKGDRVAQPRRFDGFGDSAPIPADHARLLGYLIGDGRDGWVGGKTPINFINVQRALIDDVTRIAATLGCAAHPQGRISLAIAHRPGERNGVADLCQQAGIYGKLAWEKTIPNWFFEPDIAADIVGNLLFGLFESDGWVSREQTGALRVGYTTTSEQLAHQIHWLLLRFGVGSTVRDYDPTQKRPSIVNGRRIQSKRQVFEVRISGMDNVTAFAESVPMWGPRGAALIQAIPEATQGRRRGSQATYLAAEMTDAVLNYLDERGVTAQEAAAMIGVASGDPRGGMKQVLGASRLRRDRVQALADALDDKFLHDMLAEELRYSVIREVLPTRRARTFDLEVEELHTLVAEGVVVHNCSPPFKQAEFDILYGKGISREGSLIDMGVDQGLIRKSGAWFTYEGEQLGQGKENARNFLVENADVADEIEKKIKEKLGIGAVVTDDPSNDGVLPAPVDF

Cytochrome P450 2C19 = Cytochrome P450 2C19 (Homo sapiens, UniProt P33261); assay: Cytochrome panel assay with activity outcomes. Panel member name: p450-cyp2c19 Compounds with AC50 equal or less than 10 uM are considered active; format: functional; conditions: read-out: AC50
[2] = target: T4, Polyadenylate-binding protein 1 (Homo sapiens, UniProt P11940); assay: PABP1 MLLE–PAM2 interaction inhibitors, dose response, miRNA deadenylation inhibitor project, biochemical, fluorescence polarization, Cy5-PAM2 peptide, secondary (AID 602260); format: functional; conditions: read-out: IC50_Mean
[3] = target: T4, Polyadenylate-binding protein 1; assay: PABP1 MLLE–PAM2 binding inhibitor potency, dose response, biochemical, fluorescence polarization, FITC-PAM2 peptide (AID 602259); format: functional; conditions: read-out: IC50_Mean
Cytochrome P450 2C9 = Cytochrome P450 2C9 (Homo sapiens, UniProt P11712)
Chain of Cytochrome P450 2C9 (P11712 whole entry): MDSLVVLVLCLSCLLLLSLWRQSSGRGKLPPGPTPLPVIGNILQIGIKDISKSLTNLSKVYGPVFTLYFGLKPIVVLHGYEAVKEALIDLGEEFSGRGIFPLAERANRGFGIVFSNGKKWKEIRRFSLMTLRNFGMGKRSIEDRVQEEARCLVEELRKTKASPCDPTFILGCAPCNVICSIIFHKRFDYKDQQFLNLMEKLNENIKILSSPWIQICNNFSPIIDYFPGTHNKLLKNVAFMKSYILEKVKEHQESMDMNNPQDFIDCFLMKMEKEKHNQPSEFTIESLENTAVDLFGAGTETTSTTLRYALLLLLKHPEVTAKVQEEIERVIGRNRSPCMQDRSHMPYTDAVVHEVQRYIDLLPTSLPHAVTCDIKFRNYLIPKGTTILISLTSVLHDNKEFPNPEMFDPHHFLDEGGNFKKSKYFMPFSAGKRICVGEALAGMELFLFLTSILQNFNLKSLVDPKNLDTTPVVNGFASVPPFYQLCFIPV

T4 sequence (P11940 whole entry): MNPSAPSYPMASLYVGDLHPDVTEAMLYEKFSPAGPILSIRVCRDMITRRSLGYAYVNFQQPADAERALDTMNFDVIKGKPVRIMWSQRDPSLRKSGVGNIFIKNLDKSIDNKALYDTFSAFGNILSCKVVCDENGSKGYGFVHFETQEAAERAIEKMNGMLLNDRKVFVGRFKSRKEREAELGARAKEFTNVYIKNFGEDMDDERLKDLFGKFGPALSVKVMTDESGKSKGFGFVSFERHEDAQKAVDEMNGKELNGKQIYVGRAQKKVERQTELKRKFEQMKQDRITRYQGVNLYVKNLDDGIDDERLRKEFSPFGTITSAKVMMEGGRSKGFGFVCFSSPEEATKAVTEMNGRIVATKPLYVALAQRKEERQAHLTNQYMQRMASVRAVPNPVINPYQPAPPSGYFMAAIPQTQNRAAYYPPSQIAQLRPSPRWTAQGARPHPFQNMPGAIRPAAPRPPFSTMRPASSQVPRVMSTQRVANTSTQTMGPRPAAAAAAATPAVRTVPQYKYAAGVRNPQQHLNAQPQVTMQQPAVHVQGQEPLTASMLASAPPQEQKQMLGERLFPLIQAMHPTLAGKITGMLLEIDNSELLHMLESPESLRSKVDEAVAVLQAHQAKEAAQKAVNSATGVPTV
Chain of Cytochrome P450 3A4 (P08684 whole entry): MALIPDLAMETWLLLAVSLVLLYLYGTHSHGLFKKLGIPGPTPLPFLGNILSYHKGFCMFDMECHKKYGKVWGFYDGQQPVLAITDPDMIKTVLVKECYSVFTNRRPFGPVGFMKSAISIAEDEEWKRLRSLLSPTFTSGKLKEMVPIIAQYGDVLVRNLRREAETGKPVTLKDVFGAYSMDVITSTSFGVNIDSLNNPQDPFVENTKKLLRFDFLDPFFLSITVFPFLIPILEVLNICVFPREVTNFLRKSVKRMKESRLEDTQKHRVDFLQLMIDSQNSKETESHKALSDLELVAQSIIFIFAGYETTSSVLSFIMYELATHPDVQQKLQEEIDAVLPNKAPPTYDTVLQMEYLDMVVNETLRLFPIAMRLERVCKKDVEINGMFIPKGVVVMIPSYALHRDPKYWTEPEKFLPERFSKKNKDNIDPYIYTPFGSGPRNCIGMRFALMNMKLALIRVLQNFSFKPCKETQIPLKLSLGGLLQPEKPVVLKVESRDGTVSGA
Chain of Cytochrome P450 2D6 (P10635 whole entry): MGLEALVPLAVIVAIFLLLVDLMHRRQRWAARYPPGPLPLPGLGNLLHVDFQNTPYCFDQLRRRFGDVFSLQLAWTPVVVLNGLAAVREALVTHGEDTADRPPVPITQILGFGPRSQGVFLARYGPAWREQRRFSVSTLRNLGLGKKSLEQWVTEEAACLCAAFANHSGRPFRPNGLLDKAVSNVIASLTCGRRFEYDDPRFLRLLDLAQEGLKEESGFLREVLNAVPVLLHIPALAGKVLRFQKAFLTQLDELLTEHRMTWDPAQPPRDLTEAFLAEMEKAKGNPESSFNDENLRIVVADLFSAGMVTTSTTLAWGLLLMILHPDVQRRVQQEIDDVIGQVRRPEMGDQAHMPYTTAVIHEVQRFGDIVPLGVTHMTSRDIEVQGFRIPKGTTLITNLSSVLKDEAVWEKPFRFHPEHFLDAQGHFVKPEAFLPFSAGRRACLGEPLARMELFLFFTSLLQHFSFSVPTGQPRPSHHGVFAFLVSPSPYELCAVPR
Chain of Cytochrome P450 2C19 (P33261 whole entry): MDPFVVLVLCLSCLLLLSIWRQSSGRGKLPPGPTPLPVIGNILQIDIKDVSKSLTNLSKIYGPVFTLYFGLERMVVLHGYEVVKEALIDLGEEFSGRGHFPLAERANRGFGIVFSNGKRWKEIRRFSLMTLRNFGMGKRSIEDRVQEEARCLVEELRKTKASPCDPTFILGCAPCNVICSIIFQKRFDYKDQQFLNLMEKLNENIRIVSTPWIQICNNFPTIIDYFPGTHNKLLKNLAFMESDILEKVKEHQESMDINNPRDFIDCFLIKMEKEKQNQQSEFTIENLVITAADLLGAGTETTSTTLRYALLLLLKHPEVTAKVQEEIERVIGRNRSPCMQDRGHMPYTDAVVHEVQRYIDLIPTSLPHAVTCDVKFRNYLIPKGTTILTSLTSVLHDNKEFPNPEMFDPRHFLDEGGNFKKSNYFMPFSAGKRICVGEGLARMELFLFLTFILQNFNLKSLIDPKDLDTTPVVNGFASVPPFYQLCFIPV

## CN(C)c1ncc2nc(CCc3ccccc3)c(=O)n(Cc3ccc(F)cc3)c2n1
Cytochrome P450 2D6
  AC50: 25.1 µM (inconclusive)
Cytochrome P450 3A4
  AC50: 3.98 µM (inconclusive)

## Cc1ccccc1-c1nc(C[S+]([O-])CC(=O)N2CCC3(CC2)OCCO3)c(C)o1 (stereo unspecified)
Cytochrome P450 2D6
  AC50: 25.1 µM (inconclusive)
Cytochrome P450 1A2
  AC50: 25.1 µM (inconclusive)

## Cc1ccc(NC(=O)CSc2ncnc3ccccc23)cc1S(=O)(=O)N1CCCCCC1
[1]
  AC50: 20.1 µM (active)
Protein RecA
  EC50: 2.66 µM (active)

## Cc1noc(C)c1CSCC(=O)Oc1ccc(N(C)S(=O)(=O)c2ccccc2)cc1
[1]
  AC50: 4.1 µM (active)
Protein RecA
  EC50: 22.3 µM (active)

## Cc1n[nH]c2c1C(c1cnn(C)c1)C(C#N)=C(N)O2 (stereo unspecified)
[1]
  AC50: 14.2 µM (active)
Protein RecA
  EC50: 3.67 µM (active)

## CN(Cc1ccco1)c1ncncc1-c1ccoc1
Cytochrome P450 2C19
  AC50: 39.8 µM (inconclusive)
Cytochrome P450 2D6
  AC50: 39.8 µM (inconclusive)
Cytochrome P450 3A4
  AC50: 3.16 µM (inconclusive)

## COc1ccccc1CNc1cc(-c2ccccc2C)ncn1
Cytochrome P450 2D6
  AC50: 15.8 µM (inconclusive)
Cytochrome P450 3A4
  AC50: 31.6 µM (inconclusive)

## CCN1CCc2c(C#N)c(N3CCOCC3)nc(NCCO)c2C1
[2]
  IC50: > 66 µM (inactive)
[3]
  IC50: > 66 µM (inactive)

## Cc1cc(O)nc(SCn2nnc3ccccc3c2=O)n1
[2]
  IC50: > 66 µM (inactive)
[3]
  IC50: > 66 µM (inactive)

## O=[N+]([O-])/C=C\c1cc2ccccc2[nH]1
Cytochrome P450 2C19
  AC50: 5.01 µM (inconclusive)
Cytochrome P450 2D6
  AC50: 5.01 µM (inconclusive)

## COc1cccc(Nc2c([N+](=O)[O-])cncc2[N+](=O)[O-])c1
[1]
  AC50: 12.9 µM (active)
Protein RecA
  EC50: 8.86 µM (active)

## O=C(c1cc(C(F)(F)F)cc(C(F)(F)F)c1)N1CCC2(CC1)CN(c1ccccn1)C2
Cytochrome P450 2D6
  AC50: 12.6 µM (inconclusive)

## CC(N=C(S)Nc1ccccc1C(F)(F)F)C1CC2CCC1C2 (stereo unspecified)
[2]
  IC50: > 66 µM (inactive)
[3]
  IC50: > 66 µM (inactive)

## CN(C)/C=N/c1ccc2nn(-c3ccccc3)nc2c1
Cytochrome P450 2D6
  AC50: 25.1 µM (inconclusive)
Cytochrome P450 2C9
  AC50: 15.8 µM (inconclusive)

## CCN(CC(=O)NCc1ccc(Cl)cc1)C(=O)CNS(=O)(=O)c1ccc(NC(C)=O)cc1
[2]
  IC50: > 66 µM (inactive)
[3]
  IC50: > 66 µM (inactive)

## COc1ccc(CCC(C)Nc2cccc(F)c2)cc1 (stereo unspecified)
Cytochrome P450 2D6
  AC50: 10 µM (inconclusive)
